Results as given in publication PMC7927014, “Novel Small Molecule Hsp90/Cdc37 Interface Inhibitors Indirectly Target K-Ras-Signaling” (Cancers, 2021).

What was measured:
K-RasG12V nanoclustering = experiment: K-RasG12V nanoclustering-FRET (FLIM-FRET) in HEK cells; type: cell-based; details: 24 h, conglobatin A 2 μM, salinomycin 1.3 μM, 17-AAG 2 μM, CAY10585 10 μM, hit compounds indicated concentrations
Protocol: In total, 80,000 HEK cells were seeded in 12-well plates containing sterilized 16-mm coverslips and 1 mL medium. The next day, the cells were transfected using jetPRIME or FuGENE HD transfection reagent. For the donor fluorophore-only samples, the cells were transfected with 500 ng mGFP-tagged RasG12V plasmid. For the nanoclustering-FRET pair samples, the cells were transfected with both the donor and acceptor constructs, i.e., pmGFP- and pmCherry- RasG12V at a plasmid ratio of 1:3, respectively, and a total of 800 ng plasmids. The next day, the cells were treated with either 0.1% DMSO vehicle control or the indicated concentrations of compounds diluted in DMEM or RPMI medium for 24 h. For the gene silencing studies, the cells were transfected with the indicated amounts of siRNAs, together with the FRET pair constructs. The plasmids and siRNA were diluted in the same jetPRIME transfection buffer, followed by the addition of jetPRIME. […] The lifetime of the mGFP donor fluorophore was measured using a fluorescence microscope (Zeiss AXIO Observer D1) equipped with a fluorescence lifetime imaging attachment (Lambert Instruments), as described previously in detail. The apparent FRET efficiency (Eapp) was calculated as Eapp = (1 − τDA/τD) × 100%, with the measured fluorescence lifetimes τDA of the FRET sample and the τD of the donor-only sample.

Hsp90/Cdc37 [1] = target: T1, Hsp90/Cdc37 (Homo sapiens, UniProt P07900); experiment: Hsp90/Cdc37 split Renilla luciferase assay, full length Hsp90 (cell lysate; IC50 and 20 μM validation); type: biochemical; details: for normalized RLU / Average RLU: MolPort Screening-3, tested concentration of drugs 20 μM; for normalized RLU: RLU normalized to DMSO (=1.00); for Average RLU: average of 3 wells (DMSO 248028); for IC50: full length Hsp90, split Renilla luciferase assay, cell lysate
T1 construct: The Hsp90/Cdc37 split Renilla luciferase assay using the full length Hsp90 for the compound screening was described previously; expressed in transfected cells; host or cells: HEK293 EBNA cells, cleared lysates
Protocol: (§1) In the second in silico screening of the FIMM database, we employed the four identified chemical scaffolds (Figure S2B) for the visual inspection of the FIMM compound library. […] All of the purchased compounds were validated in vitro at 20 μM using the split Renilla luciferase assay.
(§2) The Hsp90/Cdc37 split Renilla luciferase assay using the full length Hsp90 for the compound screening was described previously. […] After 48 h, the cells were trypsinized and washed with PBS. The harvested cells were lysed in 1 mL of the 1x lysis buffer provided in the Renilla Luciferase Reporter Assay System Kit from Promega (cat. E2820), and were incubated on ice for 10 min. The cell lysates were then cleared by centrifugation at 13,000× g for 1 min. […] After this, the screening/test compounds or DMSO—as indicated—were added to each well. In total, 5 µL NRL-Hsp90- or NRL-N-Hsp90-lysate was added to each well, one row at a time. Subsequently, the plate was incubated for 5 min at room temperature (RT). […] Just before the reading, 20 µL assay buffer containing 2× Renilla luciferase substrate (coelenterazine) was added. For the FIMM screening, sample wells were read on a PHERAstar plate reader (BMG LABTECH) at a gain level of 4000, after 10 s shaking, using a hypomorph of NRL-Hsp90. For the subsequent validations of the compounds, sample wells with the above-described assay constructs were read using a synergy H1 Hybrid Multi-Mode reader (BioTek) in the luminescence detection mode, as described previously in detail.

Hsp90/Cdc37 [2] = experiment: FIMM screening in split Renilla luciferase assay with hypomorphic NRL-Hsp90 construct, 20 μM; type: biochemical; details: for Average RLU (FIMM Screening-1): DMSO 50019
Protocol: as §1, §2

HCC-44 cells = experiment: 2D cell proliferation (alamarBlue); type: cell-based; details: Homo sapiens, HCC44; HCC-44 (lung, G12C), 72 h
Protocol: (§3) Per well, 500–700 cells were seeded in 96-well flat bottom culture plates in 100 µL. After 24 h, the cells were treated with 0.1% DMSO vehicle control or test compounds diluted in a medium using a 1:2 dilution-series, starting at 100 µM. The plates were further incubated for 72 h. The cell viability was measured after the addition of 10% alamarBlue reagent per well (cat. no. DAL1100, Thermo Fisher Scientific). The fluorescence intensity (excitation 560 nm and emission 590 nm) was measured after 4 h by the use of a H1 Hybrid Multi-Mode reader.

HEK293 EBNA cells = experiment: 2D cell proliferation (alamarBlue); type: cell-based; details: Homo sapiens, 72 h
Protocol: as §3

SK-BR-3 cells = experiment: 2D cell proliferation (alamarBlue); type: cell-based; details: Homo sapiens; SK-BR-3 (breast, n.a.), 72 h
Protocol: as §3

MCF 10A cells = experiment: 2D cell proliferation (alamarBlue); type: cell-based; details: Homo sapiens, 72 h
Protocol: as §3

MIA PaCa-2 cells = experiment: 2D cell proliferation (alamarBlue); type: cell-based; details: Homo sapiens; MIA PaCa-2 (pancreas), 72 h
Protocol: as §3

Hsp90α (N-terminal) = target: T2, Hsp90α (N-terminal) (Homo sapiens, UniProt P07900); experiment: Hsp90 N-terminal ATP-binding site competition assay (FITC-geldanamycin fluorescence polarization)
T2 construct: purchased BPS Bioscience 50298
Protocol: The reaction was initiated by adding 35 ng/μL purified recombinant Hsp90α, and was incubated at RT with slow shaking for 2 h. All of the reactions were performed in a black, low binding NUNC microtiter plate, included in the kit, and the total reaction volume was 50 μL. The enzyme control was measured without the test compound, and the enzyme background control was measured without the test compound or Hsp90α. […] All of the controls and the blank contained 10% DMSO, as did all of the samples of the test compounds. All of the samples were analyzed as duplicates. […] The blank value was subtracted from all of the other values, and the fluorescence polarization was determined as:(1) mP = ((III − I⊥)/(III+ I⊥)) × 1000 where III is the intensity of the parallel, and I┴ the intensity of the perpendicular polarized light.

Hsp90, Hsp70 = experiment: Western blotting of Hsp90 and Hsp70 (heat shock response); type: cell-based; details: Western blot, 24 h; four cancer cell lines; 17-AAG 2 μM
Protocol: The cells in the RIPA buffer were placed on ice for 20 min, and were then sonicated in ice cold water for 5 min. […] Equal amounts of protein were separated by 10% SDS-PAGE, and were then transferred onto a nitrocellulose membrane (cat. no. NBA 083C001EA, Protran) using a wet transfer system (Bio-Rad) or semidry Transferblot Turbo Transfer System (Bio-Rad). After the transfer, the membranes were blocked for 30 min in 5% skimmed milk dissolved in 1× TBST, and then incubated with 1:2000 primary antibodies in 5% BSA in TBST at 4 °C overnight.
The next day, the membranes were washed three times in TBST for 10 min, and then incubated with secondary antibodies (1:5000) diluted in 5% skimmed milk in TBST for 1 h at RT. […] All of the antigens and molecular weights in kDa are labelled next to the blots on the figures. Uncropped Western blot data are attached as Figure S6.

Row | Compound | K-RasG12V nanoclustering-FRET (K-RasG12V nanoclustering) | normalized RLU (Hsp90/Cdc37 [1]) | Average RLU (Hsp90/Cdc37 [1]) [RLU] | IC50 (Hsp90/Cdc37 [1]) [µM] | normalized RLU (FIMM Screening-1) (Hsp90/Cdc37 [2]; DMSO = 1.00) | normalized RLU (FIMM Screening-2, scaffold based) (Hsp90/Cdc37 [2]; DMSO = 1.00) | Average RLU (FIMM Screening-1) (Hsp90/Cdc37 [2]; mean of 3 wells) [RLU] | Average RLU (FIMM Screening-2, scaffold based) (Hsp90/Cdc37 [2]; mean of 3 wells, DMSO 51006) [RLU] | IC50 (HCC-44 cells) [µM] | IC50 (HEK293 EBNA cells) [µM] | IC50 (SK-BR-3 cells) [µM] | IC50 (MCF 10A cells) [µM] | IC50 (MIA PaCa-2 cells) [µM] | competition with FITC-geldanamycin (ATP-pocket binding, polarization signal) (Hsp90α (N-terminal); 20 μM compound) | competition with FITC-geldanamycin (ATP-pocket binding, polarization signal) (Hsp90α (N-terminal); up to 50 μM (12.5, 25, 50 μM)) | induction of Hsp90 or Hsp70 expression (heat shock response) (Hsp90, Hsp70)
1 | C/C1=C\[C@H](C)C[C@H](C)[C@H](Cc2cnco2)OC(=O)/C(C)=C/[C@H](C)C[C@H](C)[C@H](Cc2cnco2)OC1=O [conglobatin A, reference compound] | selective inhibition of K-RasG12V- | 0.40 | 98821 | 23 ± 6 | 0.51 | 0.49 | 25349 | 25048 | – | – | – | – | – | – | – | –
2 | N=C(CSS(=O)(=O)O)NCC12CC3CC(CC(C3)C1)C2 [×6506, [({N-[(adamantan-1-yl)methyl]carbamimidoyl}methyl)sulfanyl]sulfonic acid] | displayed K-Ras-selectivity | 0.11 | 26657 | 5 ± 1 | – | – | – | – | 28 ± 4 | 47 | 36 ± 4 | 64 | 25 ± 2 | None of these four compounds displaced | did not do so | not inducing
3 | CCOc1ccc(C(=O)c2ccc(O)c(O)c2O)cc1 [×1540, 2,3,4-TRIHYDROXY-4'-ETHOXYBENZOPHENONE] | displayed K-Ras-selectivity | – | – | 44 ± 18 | 0.76 | – | 37962 | – | 49 ± 6 | 89 | 36 ± 3 | 172 | 23 ± 2 | None of these four compounds displaced | did not do so | not inducing
